In PubChem BioAssay AID2384 (Southern Research Specialized Biocontainment Screening …, 2010):

Each molecule was assayed on S. typhi GFP reporter counter-screen, fluorescence, 4 h (assay: S. typhi counter-screen signal inhibition – fluorescence, 4 h, counter-screen for PhoP regulon inhibitor project, dose response (AID 2384)).

| SMILES | IC50 |
| --- | --- |
| CN1C(=O)NC(c2ccc(O)cc2)C(C(=O)c2cccs2)C1(O)C(F)(F)F (configuration not stated) | 19.1 µM |
| CN1CCc2c(sc(NC(=O)c3ccc([N+](=O)[O-])o3)c2C(N)=O)C1 | 17.1 µM |
| CCCCCCCCC1=NCCc2c1[nH]c1ccccc21 | 78.4 µM |
| Oc1ccc(CN2CCCc3ccccc32)c2cccnc12 | 57.2 µM |
| CCCCOc1ccc(C(=O)NNC(=S)NC(=O)CC)cc1 | 33.6 µM |
| CCCCCc1ccc(OCCC[n+]2ccccc2)c(CCCCC)c1 | 32.9 µM |
| Cc1ccc(NC(=O)c2ccccc2)s1 | 110 µM |
| CN1CCN(C2Cc3cc(Cl)ccc3Sc3cc(F)ccc32)CC1 (configuration not stated) | 22.2 µM |
| Cc1ccc(C(C[N+](=O)[O-])n2nc(C)cc2C)cc1 (configuration not stated) | 27.1 µM |
| c1ccc(Nc2nc(NCc3ccco3)c3ccccc3n2)cc1 | 21.5 µM |
| CC1COc2c(N3CCN(C)CC3)c(F)cc3c(=O)c(C(=O)O)cn1c23 (configuration not stated) | 1.73 µM |
| NC[C@@H]1O[C@H](C23CC4CC(CC(C4)C2)C3)Cc2c1ccc(O)c2O | 27 µM |
| O=C(Cn1nc(CNc2ccc(Br)cc2)[n+]2c1CCCCC2)c1ccc([N+](=O)[O-])cc1 | 35 µM |
| CN(C)CCCn1c(SCC(=O)N2c3ccccc3Sc3ccccc32)nc2ccccc2c1=O | 47.2 µM |
| OCCN1CCN(C2CCC(c3ccc(F)cc3)c3ccc(F)cc32)CC1 (configuration not stated) | 15.9 µM |
| O=S(=O)(Nc1c(S(=O)(=O)c2ccccc2)c2nc3ccccc3nc2n1C1CCCCC1)c1ccccc1 | 5.67 µM |
| COc1cc(C)c(Cc2cnc(N)nc2N)cc1OC | 5.98 µM |
| c1ccc(CNc2nc(N3CCN(Cc4ccccc4)CC3)nc3ccccc23)cc1 | 25.4 µM |
| Cc1cccn2c(=O)c(C=O)c(Cl)nc12 | 145 µM |
| O=C(Nc1ccc2nc(-c3ccc(Br)o3)[nH]c2c1)c1cccs1 | 15 µM |
| CCn1cc(C(=O)O)c(=O)c2cc(F)c(N3CCN(C(=S)NC(=O)c4cc(OC)cc(OC)c4)CC3)cc21 | 143 µM |

| SMILES | IC50 |
| --- | --- |
| CCCCc1ccc(NC2=NCCCS2)cc1 | 80.5 µM |
| CCn1cc(C(=O)NCCO)c(=O)c2cc(F)c(N3CCN(C)CC3)cc21 | 27.7 µM |
| C#CCOCCOCCOCCNc1nc(N2CCN(C(=O)C(Cc3ccc(O)cc3)n3cc(C(N)CC(C)C)nn3)CC2)nc(N2CCN(C(=O)C(Cc3cc4ccccc4[nH]3)n3cc(C(N)Cc4ccc(O)cc4)nn3)CC2)n1 (configuration not stated) | 37.7 µM |
| CS(=O)(=O)c1ccc([C@@H](O)[C@@H](CF)NC(=O)C(Cl)Cl)cc1 | 5.15 µM |
| c1ccc2c(c1)CSc1sccc1C2=C1CCNCC1 | 80.3 µM |
| O=C(Cc1ccccc1)NNC(=S)NC(=O)c1cccs1 | 32.3 µM |
| C/C(=N\NC(=O)c1ccc(Cl)cc1)c1ccccn1 | 28.9 µM |
| O=C(N/N=C/c1cc(O)ccc1Br)c1cccnc1 | 69.4 µM |
| CN1CCc2nc(SCC(=O)Nc3ccc(Cl)cc3)c(C#N)cc2C1 | 93.5 µM |
| CCCNC(=O)c1cn(CC)c2cc(N3CCN(C)CC3)c(F)cc2c1=O | 30.6 µM |
| Clc1ccc2c(c1)C(N1CCNCC1)Cc1ccccc1S2 (configuration not stated) | 35.1 µM |
| CCn1cc(C(=O)O)c(=O)c2cc(F)c(N3CCNCC3)cc21 | 0.49 µM |
| O=C(Nc1nnc(-c2cccs2)o1)c1cccc(F)c1 | 28.6 µM |
| COc1cc(/C=C2/C(=O)NN(c3ccc(F)cc3)C2=O)cc([N+](=O)[O-])c1O | 62.6 µM |
| CC[n+]1c(/C=C/N(C)c2ccccc2)n(-c2ccccc2)c2ccc(-c3nc4ccccc4s3)cc21 | 9.23 µM |
| [O-][n+]1c2c(c3c4non(O)c4ccc31)CCCC2 | 79.2 µM |
| CC[C@H]1OC(=O)[C@H](C)[C@@H](O[C@H]2C[C@@](C)(OC)[C@@H](O)[C@H](C)O2)[C@H](C)[C@@H](O[C@@H]2O[C@H](C)C[C@H](N(C)C)[C@H]2O)[C@](C)(O)C[C@@H](C)[C@@H]2N[C@@H](COCCOC)O[C@H]([C@H]2C)[C@]1(C)O | 5.52 µM |
| COc1ccc(S(=O)(=O)N2CN3CCN(C3)C2)cc1 | 90.8 µM |
| c1ccc(Sc2cccc3ccccc23)c(CNC2=NCCN2)c1 | 40.1 µM |
| CN1CCN(c2nc(Nc3ccc(F)cc3)nc(Nc3ccc(F)cc3)n2)CC1 | 86.7 µM |
| Cc1occc1C(=O)N/N=C/C=C/c1ccccc1 | 97.1 µM |
